The conditions of data set [1]: phase 2a study; cited from earlier work.
On the set-up of data set [2]: method as in PMID 9461591. To be noted: DM/HC pigs, vs untreated; cited from earlier work.
Data set [3] has as its target T1, CYP3A4 (Homo sapiens, UniProt P08684). The data set is described as follows: clinical. To be noted: plasma, oral; for AUC(0-t): AUC(0-t) of analyte; for AUC(0-t) / Cmax: geometric mean (CVb%); for Cmax: Cmax of analyte.
Data set [4] deals with T1, CYP3A4. The settings on record: A1+S vs S, the 9 subjects who received both.
A short description of data set [5]: Study 2: safety and tolerability (adverse events). To be noted: by treatment: simvastatin 10 mg SD N = 12; GSK2647544 80 mg b.i.d. 7 days + simvastatin N = 9.
Where [6] appears, read: 10 mg, S = simvastatin 10 mg SD alone.
[7] abbreviates: A1+S = simvastatin 10 mg SD plus GSK2647544 80 mg b.i.d. for 7 days.
The mark [8] stands for this setting: P1+S = simvastatin 10 mg SD plus matched placebo b.i.d. for 7 days.

The text below walks through data of article PMC5299597, “Evaluation of the safety, pharmacokinetics, pharmacodynamics, and drug-drug interaction potential of a selective Lp-PLA2 inhibitor (GSK2647544) in healthy volunteers” (International Journal of Clinical Pharmacology and …, 2016).

T1 sequence (P08684 whole entry): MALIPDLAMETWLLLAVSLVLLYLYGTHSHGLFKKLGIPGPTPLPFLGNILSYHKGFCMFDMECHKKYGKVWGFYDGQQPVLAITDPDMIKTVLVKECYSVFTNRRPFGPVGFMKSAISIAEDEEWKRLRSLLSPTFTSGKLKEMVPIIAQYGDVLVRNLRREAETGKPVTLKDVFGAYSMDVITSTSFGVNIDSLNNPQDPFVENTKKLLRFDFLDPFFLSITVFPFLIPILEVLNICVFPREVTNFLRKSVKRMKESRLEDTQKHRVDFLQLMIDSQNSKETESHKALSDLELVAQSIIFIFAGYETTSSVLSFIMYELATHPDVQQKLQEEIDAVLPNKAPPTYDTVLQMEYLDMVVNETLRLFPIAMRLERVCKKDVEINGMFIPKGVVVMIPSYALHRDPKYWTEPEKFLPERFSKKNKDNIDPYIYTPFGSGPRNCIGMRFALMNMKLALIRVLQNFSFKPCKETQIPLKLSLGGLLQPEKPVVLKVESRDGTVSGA

Take `COCCN1CCC(N(Cc2ccc(-c3ccc(C(F)(F)F)cc3)cc2)C(=O)Cn2c(SCc3cccc(F)c3F)cc(=O)c3ccccc32)CC1` [rilapladib]: the cognitive outcomes in data set [1] is given as “improved cognitive outcomes”.

As for `CCN(CC)CCN(Cc1ccc(-c2ccc(C(F)(F)F)cc2)cc1)C(=O)Cn1c(SCc2ccc(F)cc2)nc(=O)c2c1CCC2` [darapladib], in data set [2], the “extent of immunoglobulin-G brain parenchyma penetration” value is recorded as “numerically reduced” and the “total amount of brain amyloid-β peptide 1-42 deposition” value is listed as “significantly lowered”.

Regarding `CCC(C)(C)C(=O)O[C@H]1C[C@@H](C)C=C2C=C[C@H](C)[C@H](CC[C@@H](O)C[C@@H](O)CC(=O)O)[C@H]21` [Simvastatin acid, simvastatin acid], the AUC(0-t) (in general, the area under the concentration-time curve up to a stated or last time point) at CYP3A4 [3] (setting [6]) came to 2.49 ng·h/mL; on CYP3A4 [3] (setting [7]), 7.93 ng·h/mL; on CYP3A4 [3] (setting [8]), 2.14 ng·h/mL. For the same compound, the Cmax (as a rule, the maximum level reached in the sampled fluid or tissue) on CYP3A4 [3] (setting [6]) came to 0.504 ng/mL; at CYP3A4 [3] (setting [7]), 1.3 ng/mL; on CYP3A4 [3] (setting [8]), 0.351 ng/mL. Further, the Tmax (commonly the time at which the peak concentration occurs) is 4.04 h on CYP3A4 [3] (10 mg, tmax of analyte, median (range), S = simvastatin 10 mg SD alone); 4 h on CYP3A4 [3] (median tmax of analyte, simvastatin alone); 6 h on CYP3A4 [3] (median tmax of analyte, simvastatin in combination with GSK2647544); 5.92 h at CYP3A4 [3] (tmax of analyte, median (range), A1+S = simvastatin 10 mg SD plus GSK2647544 80 mg b.i.d. for 7 days); 5.92 h on CYP3A4 [3] (tmax of analyte, median (range), P1+S = simvastatin 10 mg SD plus matched placebo b.i.d. for 7 days). The “Ratio of geometric means (90% CI), AUC(0-t)” value on CYP3A4 [4] is 3.09 (1.05, 9.03). The “Ratio of geometric means (90% CI), AUC(0–∞)” value at CYP3A4 [4] is recorded as 1.50 (0.48, 4.71). Besides, the “Ratio of geometric means (90% CI), Cmax” value on CYP3A4 [4] was 2.30 (1.46, 3.63).

Turning to `CCC(C)(C)C(=O)O[C@H]1C[C@@H](C)C=C2C=C[C@H](C)[C@H](CC[C@@H]3C[C@@H](O)CC(=O)O3)[C@H]21` [Simvastatin, simvastatin], in data set [5], the Abdominal discomfort was 0 n (%), the Abdominal distention is reported as 0 n (%), the “Any AE” value is reported as 1 (8%) n (%) and the Application site rash is given as 1 (8%) n (%). Besides, in data set [5], the Arthragia is 0 n (%), the Back pain is 0 n (%), the Dizziness is reported as 0 n (%) and the Eructation is 0 n (%). Also, in data set [5], the Headache is reported as 0 n (%), the Nasopharyngitis was 0 n (%), the Pain in extremity is listed as 0 n (%) and the Pollakiuria is on record as 1 (8%) n (%).
